Here are results for 2 compounds from patent publication US20130203817A1, “Novel Inhibitors of LYN Kinase” (VASSA INFORMATICS, priority 2012, published 2013).

The subject of test [1] is mesenchymal breast cancer lines. The note with it: at concentrations that inhibit LYN kinase activity; cited from earlier work.
Test [2] has as its system phosphorylated (activated) LYN. The note with it: BT549 cells, Western blot; cited from earlier work. For orientation: In western blotting, separated proteins are transferred to a membrane and probed.
A further test deals with GSK3β kinase (Homo sapiens, UniProt P49841). In words: Kinase profiling, GSK3β. It is filed as biochemical. The note with it: VI201 at 100 μM. How it is done: (§1) The three compounds identified in Example 1 were tested for kinase activity at Millipore (Dundee UK). The compounds were shipped as 10 mM stocks in DMSO as per Millipore testing standards. The testing consisted of two initial phases:
(§2) (a) Profiling against a set of approximately 60 kinases, selected as representative of all kinases and current kinase drug targets, to determine the selectivity of the compounds; and, (b) IC50 testing against EGFR, the kinase target of the initial search template molecule.

The next test concerns the target WNK3(h) (Homo sapiens, UniProt Q9BYP7). In words: Millipore kinase profiling, WNK3. It is filed as biochemical. The following applies: VI201 at 100 μM. How it is done: as §1, §2
(§3) In particular, compound VI201 inhibited three kinases, in one case restricting the activity to about 20% at 100 μM concentration (Table 1).

The next test deals with Pim-1(h) (Homo sapiens, UniProt P11309). The test can be described thus: Millipore kinase profiling, Pim-1. It counts as biochemical. The following applies: VI201 at 100 μM. The procedure:
as §1, §2, §3

For another test, the target named is Abl kinase (BCR-Abl) (Homo sapiens, UniProt P00519). The test can be described thus: Kinase profiling, Abl. It counts as biochemical. The note with it: VI201 at 100 μM. The procedure: as §1, §2
Abl kinase (BCR-Abl), sequence (P00519 27-1130 limits assumed): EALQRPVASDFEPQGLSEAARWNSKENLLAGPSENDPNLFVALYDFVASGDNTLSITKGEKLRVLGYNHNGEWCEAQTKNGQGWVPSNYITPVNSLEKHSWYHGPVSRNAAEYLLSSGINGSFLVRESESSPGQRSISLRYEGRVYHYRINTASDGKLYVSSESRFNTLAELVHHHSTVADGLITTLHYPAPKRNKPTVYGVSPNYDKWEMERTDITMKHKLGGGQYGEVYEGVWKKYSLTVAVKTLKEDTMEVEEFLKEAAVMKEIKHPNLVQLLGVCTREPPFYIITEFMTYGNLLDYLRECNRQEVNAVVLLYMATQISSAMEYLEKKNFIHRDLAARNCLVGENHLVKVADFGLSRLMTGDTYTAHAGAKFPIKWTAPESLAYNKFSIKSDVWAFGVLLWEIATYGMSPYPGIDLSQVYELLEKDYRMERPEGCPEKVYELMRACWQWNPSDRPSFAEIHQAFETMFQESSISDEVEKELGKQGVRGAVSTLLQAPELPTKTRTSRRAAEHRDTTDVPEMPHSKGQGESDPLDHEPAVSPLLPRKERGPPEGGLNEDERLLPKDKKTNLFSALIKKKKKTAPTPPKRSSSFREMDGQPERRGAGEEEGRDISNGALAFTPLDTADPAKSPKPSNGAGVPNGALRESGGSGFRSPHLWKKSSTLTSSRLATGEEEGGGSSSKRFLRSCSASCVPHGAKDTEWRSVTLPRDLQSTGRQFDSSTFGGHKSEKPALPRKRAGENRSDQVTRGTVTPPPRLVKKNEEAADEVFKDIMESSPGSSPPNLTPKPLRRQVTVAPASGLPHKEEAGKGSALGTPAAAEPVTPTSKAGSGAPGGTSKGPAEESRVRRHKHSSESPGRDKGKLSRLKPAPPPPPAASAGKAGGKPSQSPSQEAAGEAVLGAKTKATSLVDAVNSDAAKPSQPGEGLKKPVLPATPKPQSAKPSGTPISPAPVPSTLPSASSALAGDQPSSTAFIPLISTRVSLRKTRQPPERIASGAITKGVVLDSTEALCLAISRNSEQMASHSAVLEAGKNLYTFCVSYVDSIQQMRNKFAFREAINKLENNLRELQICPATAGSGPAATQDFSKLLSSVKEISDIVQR
For a further test, the target named is Lyn(h) (Homo sapiens, UniProt P07948). The test can be described thus: Millipore kinase profiling, Lyn. It is filed as biochemical. The note with it: VI201 at 100 μM. How it is done:
as §1, §2, §3

WNK3(h), sequence (Q9BYP7 whole entry): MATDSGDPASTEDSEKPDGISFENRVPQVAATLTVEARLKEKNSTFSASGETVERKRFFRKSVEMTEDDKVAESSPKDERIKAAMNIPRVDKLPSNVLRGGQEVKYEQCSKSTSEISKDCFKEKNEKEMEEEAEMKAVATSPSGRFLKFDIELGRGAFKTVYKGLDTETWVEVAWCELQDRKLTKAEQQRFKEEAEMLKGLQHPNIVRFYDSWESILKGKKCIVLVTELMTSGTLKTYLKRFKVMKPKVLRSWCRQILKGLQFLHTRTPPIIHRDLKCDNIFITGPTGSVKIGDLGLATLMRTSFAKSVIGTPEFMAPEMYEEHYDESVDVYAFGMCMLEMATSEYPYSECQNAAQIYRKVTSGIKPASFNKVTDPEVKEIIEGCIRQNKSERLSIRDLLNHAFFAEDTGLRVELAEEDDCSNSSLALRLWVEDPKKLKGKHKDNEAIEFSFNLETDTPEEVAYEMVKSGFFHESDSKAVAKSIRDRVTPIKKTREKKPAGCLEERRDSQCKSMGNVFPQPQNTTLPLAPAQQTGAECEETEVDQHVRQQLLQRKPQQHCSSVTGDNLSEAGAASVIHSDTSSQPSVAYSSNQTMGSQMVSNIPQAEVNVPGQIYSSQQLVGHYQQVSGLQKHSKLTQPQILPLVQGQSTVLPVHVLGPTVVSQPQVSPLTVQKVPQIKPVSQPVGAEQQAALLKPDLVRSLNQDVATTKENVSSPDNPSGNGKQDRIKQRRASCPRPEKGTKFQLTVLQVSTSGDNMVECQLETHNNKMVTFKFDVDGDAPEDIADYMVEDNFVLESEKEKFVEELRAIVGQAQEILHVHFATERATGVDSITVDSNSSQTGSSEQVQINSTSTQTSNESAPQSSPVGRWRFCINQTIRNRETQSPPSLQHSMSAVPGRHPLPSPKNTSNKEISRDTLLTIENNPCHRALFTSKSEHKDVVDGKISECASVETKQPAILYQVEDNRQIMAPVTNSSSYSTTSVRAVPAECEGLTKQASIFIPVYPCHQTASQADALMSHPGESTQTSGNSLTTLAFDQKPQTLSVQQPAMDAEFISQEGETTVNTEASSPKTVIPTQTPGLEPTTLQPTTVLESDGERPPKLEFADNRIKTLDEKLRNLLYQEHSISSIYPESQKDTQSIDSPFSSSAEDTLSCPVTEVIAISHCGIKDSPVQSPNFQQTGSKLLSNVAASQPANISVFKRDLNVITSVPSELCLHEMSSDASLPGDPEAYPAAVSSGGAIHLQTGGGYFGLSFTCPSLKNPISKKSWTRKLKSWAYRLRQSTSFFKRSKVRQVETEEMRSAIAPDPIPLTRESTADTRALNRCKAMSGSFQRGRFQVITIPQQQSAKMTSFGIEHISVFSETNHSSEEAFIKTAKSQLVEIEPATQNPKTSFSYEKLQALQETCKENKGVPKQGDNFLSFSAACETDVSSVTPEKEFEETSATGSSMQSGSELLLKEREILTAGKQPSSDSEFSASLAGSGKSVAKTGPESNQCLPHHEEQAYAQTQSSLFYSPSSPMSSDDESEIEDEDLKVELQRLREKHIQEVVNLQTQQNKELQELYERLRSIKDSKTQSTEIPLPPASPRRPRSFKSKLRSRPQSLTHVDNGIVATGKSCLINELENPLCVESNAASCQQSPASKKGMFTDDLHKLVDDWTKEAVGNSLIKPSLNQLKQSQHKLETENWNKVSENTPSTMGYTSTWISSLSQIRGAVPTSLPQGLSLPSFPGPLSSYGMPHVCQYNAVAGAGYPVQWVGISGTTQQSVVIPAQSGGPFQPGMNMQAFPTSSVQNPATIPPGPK
Pim-1(h), sequence (P11309 whole entry): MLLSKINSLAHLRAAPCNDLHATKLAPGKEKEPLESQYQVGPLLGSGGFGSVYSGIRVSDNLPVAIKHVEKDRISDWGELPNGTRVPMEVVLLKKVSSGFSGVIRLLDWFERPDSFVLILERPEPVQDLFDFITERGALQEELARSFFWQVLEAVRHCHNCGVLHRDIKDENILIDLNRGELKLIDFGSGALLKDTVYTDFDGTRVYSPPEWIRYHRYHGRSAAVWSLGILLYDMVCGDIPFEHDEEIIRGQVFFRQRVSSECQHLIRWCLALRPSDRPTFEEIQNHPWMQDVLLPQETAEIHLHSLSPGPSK
GSK3β kinase, sequence (P49841 whole entry): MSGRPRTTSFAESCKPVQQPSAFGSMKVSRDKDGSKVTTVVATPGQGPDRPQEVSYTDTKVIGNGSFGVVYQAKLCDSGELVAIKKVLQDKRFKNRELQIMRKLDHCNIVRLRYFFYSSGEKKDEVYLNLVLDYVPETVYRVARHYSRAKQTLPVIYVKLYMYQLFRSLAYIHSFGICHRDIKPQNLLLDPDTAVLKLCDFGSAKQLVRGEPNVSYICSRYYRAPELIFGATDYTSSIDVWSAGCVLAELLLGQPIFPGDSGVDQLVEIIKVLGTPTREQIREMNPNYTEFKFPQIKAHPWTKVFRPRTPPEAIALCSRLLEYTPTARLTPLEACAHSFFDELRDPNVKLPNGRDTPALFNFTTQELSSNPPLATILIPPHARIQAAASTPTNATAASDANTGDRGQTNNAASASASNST
Lyn(h), sequence (P07948 1-491 isoform P07948-2): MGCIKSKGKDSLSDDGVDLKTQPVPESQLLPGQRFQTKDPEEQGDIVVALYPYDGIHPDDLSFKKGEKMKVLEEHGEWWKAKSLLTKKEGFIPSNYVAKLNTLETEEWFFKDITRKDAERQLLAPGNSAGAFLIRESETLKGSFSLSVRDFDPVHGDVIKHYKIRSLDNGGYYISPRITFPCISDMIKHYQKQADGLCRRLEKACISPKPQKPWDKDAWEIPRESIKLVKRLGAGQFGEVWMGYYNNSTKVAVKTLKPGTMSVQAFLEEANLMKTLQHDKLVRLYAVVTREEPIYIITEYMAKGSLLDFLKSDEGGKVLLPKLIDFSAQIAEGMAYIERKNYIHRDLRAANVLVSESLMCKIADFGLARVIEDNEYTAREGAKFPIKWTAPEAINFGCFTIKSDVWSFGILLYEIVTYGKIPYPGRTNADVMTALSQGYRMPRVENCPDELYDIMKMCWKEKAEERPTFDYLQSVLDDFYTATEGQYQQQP

As to `Cc1nc(Nc2ncc(C(=O)Nc3c(C)cccc3Cl)s2)cc(N2CCN(CCO)CC2)n1` [Dasatinib, N-(2-chloro-6-methylphenyl)-2-[[6-[4-(2-hydroxyethyl)-1-piperazinyl]-2-methyl-4-pyrimidinyl]amino]-5-thiazole carboxamide], in test [1], the cell invasion result was “blocked invasion” and the cell proliferation result is “not proliferation”. Moreover, the “phosphorylated (activated) LYN” value in test [2] is “decreased phosphorylated (activated) LYN”.
On to “N-(2,3-dimethylphenyl)-3-(3-(pyridin-2-yl)-1,2,4-thiadiazol-5-yl)propanamide [VI201]”, for which the “inhibition of GSK3β kinase” value against GSK3β kinase came to 26%. Moreover, the “inhibition of WNK3 kinase” value against WNK3(h) was 37%. The “inhibition of Pim-1 kinase” value against Pim-1(h) amounted to 44%. For the same compound, the “inhibition of Abl kinase (BCR-Abl)” value against Abl kinase (BCR-Abl) came to 5%. In addition, the “inhibition of LYN kinase” value at Lyn(h) came to 82%.
